Assay results: patent US20130102556A1, “Use of N1,N4-bis[3-(Ethylamino)Propyl]-2-Butene-1,4-Diamine Compounds in Combination with Epigenetic-Acting Pharmaceuticals for Enhanced Cancer Therapy” (THE JOHNS HOPKINS UNIVERSITY, priority 2010, published 2013)

How the values were obtained:
H3K4me2 = assay: Global H3K4me2 histone mark in Calu-6 cells, Western blot of nuclear protein; type: cell-based, human; conditions: Calu-6, increasing doses (1, 5, 10 μM), 24 hours of treatment
acetylated H3K9 (AcH3K9) = assay: Global acetylated H3K9 histone mark in Calu-6 cells, Western blot of nuclear protein; type: cell-based, human; conditions: Calu-6, increasing doses, 24 and 48 hours

CCNCCCNC/C=C\CNCCCNCC [PG-11047, (2Z)-N1,N4-bis[3-(ethylamino)propyl]-2-butene-1,4-diamine]
increase in H3K4me2 protein (H3K4me2): 2-4 fold | increase in global amounts of acetylated H3K9 protein (acetylated H3K9 (AcH3K9)): 2-3 fold
